Experimental findings from BindingDB's records for doi:10.1016/j.bioorg.2014.11.006 (Comsats Institute of Information Technology, 2015) are described below.

This assay deals with Alpha-glucosidase MAL12 (Saccharomyces cerevisiae (strain ATCC 204508 / S288c), UniProt P53341). As to the kind of experiment: Alpha-glucosidase Inhibition Assay. Particulars: 37 °C. On the procedure: A 100 µL assay mixture containing 70 µL phosphate buffer saline (50 mM at pH 6.8), 10 µL corresponding test compounds dissolved in methanol/DMSO (0.5 mM) and 10 µL (0.057 units) α-glucosidase enzyme were mixed, pre-incubated for 10 min at 37C and the abosrbance was recorded at 400 nm. The reaction was initiated by the addition of 10 µL p-nitrophenyl-α-D-glucopyranoside (substrate, 0.5 mM/well).
Alpha-glucosidase MAL12, sequence (P53341 whole entry): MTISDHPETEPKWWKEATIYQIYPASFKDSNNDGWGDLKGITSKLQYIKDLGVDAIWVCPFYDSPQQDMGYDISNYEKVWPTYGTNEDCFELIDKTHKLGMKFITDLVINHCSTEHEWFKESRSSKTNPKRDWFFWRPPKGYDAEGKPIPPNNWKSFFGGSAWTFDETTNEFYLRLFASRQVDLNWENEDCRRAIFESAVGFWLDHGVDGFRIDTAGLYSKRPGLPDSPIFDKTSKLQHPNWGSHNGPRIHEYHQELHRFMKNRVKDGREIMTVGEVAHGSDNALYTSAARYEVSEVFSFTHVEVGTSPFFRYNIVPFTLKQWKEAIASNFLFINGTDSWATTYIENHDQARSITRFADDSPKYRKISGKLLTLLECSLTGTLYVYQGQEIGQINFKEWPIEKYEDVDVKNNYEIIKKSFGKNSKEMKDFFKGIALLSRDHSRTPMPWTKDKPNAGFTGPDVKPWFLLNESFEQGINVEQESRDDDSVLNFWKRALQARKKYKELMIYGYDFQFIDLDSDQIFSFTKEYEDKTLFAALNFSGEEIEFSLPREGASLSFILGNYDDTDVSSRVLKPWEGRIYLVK
`COc1cccc(-c2nc(-c3ccccc3)c(-c3ccccc3)[nH]2)c1` yielded a 50% inhibitory concentration (IC50) of 359 µM.
The molecule `Clc1ccc(-c2nc(-c3ccccc3)c(-c3ccccc3)[nH]2)cc1` had a half-inhibitory concentration (IC50) of 458 µM.
Consider `Oc1ccccc1-c1nc(-c2ccccc2)c(-c2ccccc2)[nH]1`, for which the midpoint of inhibition, the IC50, lay at 74.3 µM.
Molecule `COc1cccc(-c2nc(-c3ccccc3)c(-c3ccccc3)[nH]2)c1O` [2-(4,5-Diphenyl-1H-imidazol-2-yl)-6-methoxyphenol (3g)] had a half-maximal inhibitory concentration (IC50) of 107 µM.
As to `Oc1ccc(-c2nc(-c3ccccc3)c(-c3ccccc3)[nH]2)cc1` [SR-01000511510-2], it took 97.1 µM to reach half-maximal inhibition (IC50).
